In patent publication US20250163057A1, “DCN-1 MODULATING COMPOUNDS AND METHODS OF USE THEREOF” (Cellarity, Inc., priority 2023, published 2025):
Where two headings read alike, the source gives them in different places.

Legend:
[1] = molecular target: T1, DCN1 (DCUND1) protein PONY domain (Homo sapiens (Human), UniProt Q96GG9); test: TR-FRET assay, DCN1 binding with FAM-labeled probe
How it was run: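 Tb-DCN1 PONY domain (E. coli, biotin/streptavidin-Tb); FAM-labelled non-covalent inhibitor probe; TritonX buffer, 200 mM NaCl; 5 nM DCN1 + 20 nM probe or 0.31 nM DCN1 + 900 nM total probe; 0.1% DMSO; TR-FRET read 1, 5, 24 hrs.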

[2] = molecular target: DCN1 protein (Homo sapiens (Human), UniProt Q96GG9); test: Intact Protein MS Analysis with the RapidFire-TOF System (covalent adduct formation); format: binding; details: MS Emax; 400 nM DCN1, 3 hours at room temperature
Chain of DCN1 protein (Q96GG9 whole entry): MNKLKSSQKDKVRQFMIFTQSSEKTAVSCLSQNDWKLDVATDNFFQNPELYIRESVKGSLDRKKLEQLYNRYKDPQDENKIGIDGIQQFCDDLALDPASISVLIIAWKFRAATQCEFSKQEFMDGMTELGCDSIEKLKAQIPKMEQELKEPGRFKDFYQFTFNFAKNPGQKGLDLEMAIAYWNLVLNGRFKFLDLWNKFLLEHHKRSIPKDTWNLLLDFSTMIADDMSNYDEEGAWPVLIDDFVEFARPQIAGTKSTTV
How it was run: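 Tag-cleaved human DCN1 (400 nM) expressed in E. coli, in 25 mM Tris-HCl, 200 mM NaCl, 1 mM DTT, was incubated with 11 compound concentrations for 3 h at room temperature and quenched with 0.2% formic acid. Intact-protein Q-TOF MS with deconvolution detected the compound adduct mass.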

[3] = tested on: Cullin-3 (CUL3) neddylation; test: AlphaLISA assay for Cullin-3 (CUL3) neddylation in TF 1 cells; format: cell-based; details: 3 hours treatment
How it was run: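 TF 1 cells in unsupplemented IMDM treated with compound concentrations for 3 h, then lysed. CUL3 neddylation detected by AlphaLISA (biotinylated anti-NEDD8, anti-CUL3 acceptor beads overnight, streptavidin donor beads 1 h); normalized to vehicle (0%) and 1 μM DI-1548 (100%), IC50 from Hill fits.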

[4] = tested on: fetal hemoglobin protein; test: HbF HPLC Cell Culture Assay; format: cell-based; details: for EC50: 336 h, HbF induction, Day 14 of culture; for Hemoglobin HPLC Ymax obs (%): relative to a control compound
Procedure: A Cell Culture Assay was performed to evaluate the ability of compounds to induce fetal hemoglobin in a cell culture. The amount fetal hemoglobin protein induced was measured by HPLC.
Cell culture began on Day −4 (thaw day). Thaw buffer was prepared by sterile filtering 6 mL of Human Serum Albumin and 144 mL of PBS to make sterile 1% I/PBS. Cells were removed from liquid nitrogen storage and mostly thawed in a 37° C. water bath. Once the ice in the cryovials was melted, cells were transferred quickly into a 50 mL conical tube. Cryovial was rinsed once with thaw buffer and buffer was transferred over to the conical tube as well. Next, doubling volumes of thaw buffer was added to the conical and gently swirled for ˜30 seconds to one minute (for example: 2 mL was added and swirled, then 4 mL, then 8 mL, and so on) until the volume in the conical is 32 mL. Cells and buffer were centrifuged at 300G for 8 minutes, and the supernatant was aspirated. Another 32 mL of thaw buffer was added slowly, swirling the tube. The tube was again centrifuged at 300G for 8 minutes and the supernatant was aspirated. Cells were counted by resuspending in 1 mL of expansion media and counting with AOPI to determine the concentration of cells/mL.
On day 2, Passage & Treatment Day, each cell culture well was counted. Next fresh CD34 Expansion Media was made which contained StemSpan SFEM, CC100 and TPO all from StemCell technologies. Appropriate volume of cells was collected, centrifuged at 300 g and resuspended in fresh media. Cells were plated in treatment format at a density of 200,000 cells/ml, 25,000 cells/well. Finally, they were treated with test compounds as well as positive and negative controls.
On Days 0, 3 & 5 the same process was carried out. First, each cell culture well was counted. Next Phase 1 Erythroid Differentiation Media was freshly made, which contained StemSpan SFEM, 2.5 U/ml EPO, 0.5 mg/ml Holo-TF, 1× Glutamax, 5 μl/ml chemically defined lipid mixture, 10 ng/ml insulin, 50 ng/ml SCF, 10 ng/ml IL-3. Appropriate volume of cells was collected, centrifuged at 300 g and resuspended in fresh media. Cells should now be in fresh wells at a density of 100,000 cells/ml. 60,000 cells, 60,000 cells and 100,000 cells for days 0, 3, 5 respectively. Finally, fresh compound was added to each well at each timepoint (Days 0, 3 & 5).
On Day 7 media and cell culture density changes. Each cell culture well was counted. Next, Phase 2 Erythroid Differentiation Media was freshly made, which contains StemSpan SFEM, 2.5 U/ml EPO, 0.5 mg/ml Holo-TF, 1× Glutamax, 5 μl/ml chemically defined lipid mixture, 10 ng/ml insulin, 50 ng/ml SCF. Appropriate volume of cells was collected, centrifuged at 300 g and resuspended in fresh media. Cells were plated in fresh wells at a density of 500,000 cells/ml, 300,000 cells/well. Finally, fresh compound was added to each well at Day 7 timepoint.
On Day 10 media formulation is once again changed. Each cell culture well was counted. Fresh Phase 3 Erythroid Differentiation Media was made which contains StemSpan SFEM, 2.5 U/ml EPO, 0.5 mg/ml Holo-TF, 1× Glutamax, 5 μl/ml chemically defined lipid mixture, 10 ng/ml insulin. Appropriate volume of cells was collected, centrifuged at 300 g and resuspended in fresh media. Cells were plated in fresh wells at a density of 500,000 cells/ml, 500,000 cells/well. Finally, fresh compound was added to each well at Day 10 timepoint.
On Day 12 the cell density is once again changed. Each cell culture well was counted. Fresh Phase 3 Erythroid Differentiation Media was made. Appropriate volume of cells was collected, centrifuged at 300 g and resuspended in fresh media. Cells were plated in fresh wells at a density of 1,000,000 cells/ml, 1,000,000 cells/well. Finally fresh compound was added to each well.
Day 14 (18th day of experiment) refers to the terminal day of culture. Each cell culture well was counted. Next between 150K and 650K cells were placed in a uniquely labeled 1.5 ml standard tube. […]

[5] = molecular target: T1, DCN1 (DCUND1) protein PONY domain; test: Off-rate measurement of reversible covalent molecules (jump dilution TR-FRET with Cy5 probe); format: binding; details: for Category: binding mode category from off-rate assay; for residence time: inverse of rate constant K; for residence time / half-life: jump dilution TR-FRET; for koff: jump dilution, Cy5 covalent probe 150 nM, TR-FRET; for half-life: ln(2)/K
Excerpt: A typical covalent compound is assumed to stay bound to a protein for at least the life of that protein in the cell. In reality, there is a range of how long a covalent compounds remains bound before a reverse reaction takes place. Thus, some covalent bonds can be labeled as reversible as their reverse reaction takes place in a measurable amount of time under physiological conditions. The assay capitalizes on the range of covalent binders by using a high affinity covalent binder as a probe to displace the more reversible binders in an adaptation of the jump dilution method.
In this version of the jump dilution method, the increase in covalent probe binding over time was measured through a TR-FRET reaction between the covalent probe and the biotinylated target protein.
The recombinant form of the DCN1 (DCUND1) protein PONY domain was produced using an E. coli expression system at Viva Biotech (China). The DCN1 protein was biotinylated (EZ sulfo-NHS-LC-biotin; Thermofisher) for labeling with streptavidin terbium (Tb) cryptate in the reaction. This biotinylated protein was used in two forms of the TR-FRET assay as described below.
The off-rate measurement is executed in two steps based on the jump dilution method. […] The greatest dilution allowed within the constraints of the assay was chosen. These factors allow a competitive advantage for the covalent probe to replace the test compound when that compound releases from the target protein. The actual measure is the rate of increased TR-FRET signal as the covalent probe replaces the test compound over time. […] The resulting time dependent curve of the TR-FRET signal is fit to the following equation:
Y=Y0+(Plateau−Y0)*(1−exp(−K*x))
K is the rate constant (1/unit of time). The residence time is defined as the inverse of K, the rate constant. The half-life is calculated as ln(2)/K.

[6] = 24 hr after treatment with compound, read-out: TR FRET IC50 24 hr
[7] = read-out: TR FRET IC50 1 hr, 1 hr after treatment with compound
[8] = TR FRET IC50 1 hr (nM), 1 hr after treatment with compound

T1 sequence (Q96GG9 60-248): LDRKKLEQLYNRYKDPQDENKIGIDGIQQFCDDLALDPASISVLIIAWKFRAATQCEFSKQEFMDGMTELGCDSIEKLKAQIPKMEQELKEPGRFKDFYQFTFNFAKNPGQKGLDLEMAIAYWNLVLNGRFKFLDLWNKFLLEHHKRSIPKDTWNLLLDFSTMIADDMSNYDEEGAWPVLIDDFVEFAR

Structure (SMILES) | IC50 [1, 6] [nM] | IC50 [1, 7] [nM] | % Adduct Formation [2] | IC50 ([3]; Homo sapiens, TF-1, 3 h) [nM] | EC50 [4] [nM] | Hemoglobin HPLC Ymax obs (%) [4] | IC50 [1, 8] [nM] | IC50 [3] [nM] | Category [5] | residence time [5] [min] | koff [5] [s⁻¹] | half-life [5] [h]
CCN1C(=O)[C@@H](NC(=O)c2cccc(C(F)(F)F)c2)C(c2ccc(F)cc2)c2c(C(=O)N(CC#N)C3COC3)nn(-c3ccccc3)c21 (mixture of isomers) [Compound I-285] | ≤ 200 | ≤ 200 | +++ (MS Emax % adduct formation greater than 80.0 and less than or equal to 100.0) | ≤ 100 | ≤ 50 | ++ (Hemoglobin HPLC Ymax greater than 65.0 and less than or equal to 100.0) | – | – | – | – | – | –
CCN1C(=O)[C@@H](NC(=O)c2cccc(C(F)(F)F)c2)[C@@H](c2ccc(F)cc2)c2c(C(=O)N3CCC[C@H]3C#N)nn(-c3ccccc3)c21 (racemic) [Compound I-34] | ≤ 200 | – | – | ≤ 100 | > 200 | – | ≤ 200 | – | – | – | – | –
CCN1C(=O)[C@@H](NC(=O)c2cccc(C(F)(F)F)c2)[C@@H](c2ccc(F)cc2)c2c(C(=O)N(C)[C@@H](C#N)CCN(C)C)nn(-c3ccccc3)c21 (relative stereo) [Compound I-304, (4S,5S)—N-[(1R*)-1-cyano-3-(dimethylamino)propyl]-7-ethyl-4-(4-fluorophenyl)-N-methyl-6-oxo-1-phenyl-5-[3-(trifluoromethyl)benzamido]-4H,5H-pyrazolo[3,4-b]pyridine-3-carboxamide] | – | – | +++ (MS Emax % adduct formation greater than 80.0 and less than or equal to 100.0) | – | – | ++ (Hemoglobin HPLC Ymax greater than 65.0 and less than or equal to 100.0) | – | – | – | – | – | –
CCN1C(=O)[C@@H](NC(=O)c2cccc(C(F)(F)F)c2)[C@@H](c2ccc(F)cc2)c2c(C(=O)N(C)[C@@H](C#N)C3COC3)nn(-c3ccccc3)c21 (single isomer, unassigned) [Compound I-294] | – | – | +++ (MS Emax % adduct formation greater than 80.0 and less than or equal to 100.0) | – | 50 to 200 | ++ (Hemoglobin HPLC Ymax greater than 65.0 and less than or equal to 100.0) | – | ≤ 100 | – | – | – | –
CCN1C(=O)[C@@H](NC(=O)c2cccc(C(F)(F)F)c2)[C@@H](c2ccc(F)cc2)c2c(C(=O)N(C)[C@@H](C#N)CCN(C)C)nn(-c3ccccc3)c21 (single isomer, unassigned) [Compound I-304, (4S,5S)—N-[(1R*)-1-cyano-3-(dimethylamino)propyl]-7-ethyl-4-(4-fluorophenyl)-N-methyl-6-oxo-1-phenyl-5-[3-(trifluoromethyl)benzamido]-4H,5H-pyrazolo[3,4-b]pyridine-3-carboxamide] | – | – | – | ≤ 100 | ≤ 50 | – | – | – | – | – | – | –
CCN1C(=O)[C@@H](NC(=O)c2cccc(C(F)(F)F)c2)[C@@H](c2ccc(F)cc2)c2c(C(=O)N3CCNC[C@@H]3C#N)nn(-c3ccccc3)c21 [Compound I-281] | – | – | – | – | ≤ 50 | ++ (Hemoglobin HPLC Ymax greater than 65.0 and less than or equal to 100.0) | – | – | – | – | – | –
CCN1C(=O)[C@@H](NC(=O)c2cccc(C(F)(F)F)c2)[C@@H](C2CC2)c2c(C(=O)N3CCC[C@H]3C#N)nn(C3CCOCC3)c21 [Compound I-348] | ≤ 200 | – | ++ (MS Emax % adduct formation greater than 30.0 and less than or equal to 80.0) | ≤ 100 | – | – | 200 to 1000 | – | slow reversible | – | – | –
CCN1C(=O)[C@@H](NC(=O)c2cccc(C(F)(F)F)c2)[C@@H](C2CC2)c2c(C(=O)N3CCOC[C@H]3C#N)nn(C3CCOCC3)c21 [Compound I-381] | ≤ 200 | ≤ 200 | +++ (MS Emax % adduct formation greater than 80.0 and less than or equal to 100.0) | – | – | – | – | – | reversible covalent | 297 | 5.62e-05 | 3.427
CCN1C(=O)[C@@H](NC(=O)c2cccc(C(F)(F)F)c2)[C@@H](c2ccc(F)cc2)c2c(C(=O)N3CC[C@H]3C#N)nn(C3CCOCC3)c21 [Compound I-384] | ≤ 200 | ≤ 200 | + (MS Emax % adduct formation greater than or equal to 0.0 and less than or equal to 30.0) | ≤ 100 | – | – | – | – | reversible covalent | 184 | 9.21e-05 | 2.122
CCN1C(=O)[C@@H](NC(=O)c2cccc(C(F)(F)F)c2)[C@@H](C2CC2)c2c(C(=O)N3CS(=O)(=O)C[C@@H]3C#N)nn(C3CCOCC3)c21 [Compound I-560] | ≤ 200 | ≤ 200 | – | ≤ 100 | – | – | – | – | fast reversible | 44.1 | 0.000378 | 0.509
CCN1C(=O)[C@@H](NC(=O)c2cccc(C(F)(F)F)c2)[C@@H](C2CC2)c2c(C(=O)N3CC[C@H]3C#N)nn(C3CCOCC3)c21 [Compound I-660] | ≤ 200 | ≤ 200 | – | ≤ 100 | – | – | – | – | reversible covalent | 266 | 6.28e-05 | 3.07
